The text below walks through data of article doi:10.64898/2025.12.27.696692v1, “A coelenterazine-dependent luciferase from the deep-sea coral Anthoptilum murrayi Kölliker, 1880 (Cnidaria: Octocorallia: Pennatulacea)” (biorxiv, 2025).

The test system of this test is T1, AnmLuc (recombinant Anthoptilum murrayi luciferase).
T1 construct: codon-optimised, pET-28a(+), N-terminal His6 (no cleavage told); E. coli ArcticExpress (DE3), Ni-NTA
The test is described as follows: luminometry, Michaelis-Menten nonlinear fit. The test is classed as biochemical. As to conditions: 50 mM sodium phosphate pH 7.5, 25 °C; coelenterazine 0.04–50 µM.

For the compound `Oc1ccc(Cc2nc3c(Cc4ccccc4)nc(-c4ccc(O)cc4)cn3c2O)cc1` [coelenterazine], the Km was determined as 3.39 µM.
